Measured values reported in PMC2191296 (The Journal of Experimental Medicine, 1993).

Experiments:
[1] = tested on: mAb 34-5-8S; test: Control: binding of free peptide to the immobilized 34-5-8S antibody surface; conditions: free peptide without H-2Dd at concentrations as high as 222 uM; SPR
[2] = biological target: H-2Dd (Mus musculus, UniProt P01900); test: Solution phase competition assay; format: binding; conditions: data not shown
[3] = Solubility of synthetic peptides in water; format: physicochemical; conditions: peptides dissolved in dH2O; insoluble ones reconstituted in 20% DMSO

H-2Dd, sequence (P01900 whole entry, looked up): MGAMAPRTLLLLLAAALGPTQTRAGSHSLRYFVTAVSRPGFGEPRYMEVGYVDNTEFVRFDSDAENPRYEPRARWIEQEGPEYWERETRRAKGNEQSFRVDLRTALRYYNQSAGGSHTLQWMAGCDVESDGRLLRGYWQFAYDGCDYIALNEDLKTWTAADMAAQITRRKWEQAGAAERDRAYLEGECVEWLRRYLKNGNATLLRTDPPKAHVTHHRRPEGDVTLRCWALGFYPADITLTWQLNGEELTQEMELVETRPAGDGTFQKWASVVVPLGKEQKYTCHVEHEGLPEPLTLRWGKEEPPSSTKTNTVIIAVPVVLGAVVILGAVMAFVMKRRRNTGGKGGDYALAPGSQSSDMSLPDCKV

| solubility in water / aqueous solution [3] | Sequence | signal of free peptide on immobilized 34-5-8S [1] | relative binding to H-2Dd [2] |
| --- | --- | --- | --- |
| – | AGPARAAAL [pD2359] | < 7 RU | binds better than pD239 |
| relative aqueous insolubility | SGPVALVNF [pD46B] | – | – |
| relative aqueous insolubility | SGPVALVNFI [pD46A] | – | – |
